*1 amine or outer side, *2 acyl side, *3 side chain or, on linkers, in order; H or OH if unused. Where a SMILES comes first, the peptide text is derived from it. Bridges are numbered along the chain shown (N, C = ends). [ ]: non-standard residue; d: D form. The star is where a group is joined. hPhe(3-Cl-4-CF3) = N[C@@H](CCc1ccc(C(F)(F)F)c(Cl)c1)C(=O)O; X51 = CCCN([C@@H](Cc1ccc(OC(F)(F)F)cc1)C(=O)[*:2])[*:1]; NPrPhe(4-CF3) = CCCN[C@@H](Cc1ccc(C(F)(F)F)cc1)C(=O)O; X50 = C=CCN([C@@H](Cc1ccc(C)cc1)C(=O)[*:2])[*:1]; NMeGly(cPent) = CN[C@H](C(=O)O)C1CCCC1; Aze(3S-Me) = C[C@H]1CN[C@@H]1C(=O)O; cisHyp = O=C(O)[C@@H]1C[C@H](O)CN1; NMeD = CN[C@@H](CC(=O)O)C(=O)O; NMeL = CN[C@@H](CC(C)C)C(=O)O; Morpholide = C1CN(*)CCO1; NMeA = CN[C@@H](C)C(=O)O; Ac5c = NC1(C(=O)O)CCCC1; Aze = O=C(O)[C@@H]1CCN1; Ethyl(2,2-F2) = FC(F)C*; Ac3c = NC1(C(=O)O)CC1; Sar = CNCC(=O)O
Target: HRAS wild-type protein (Homo sapiens, UniProt P01112)
Experiment: Binding to HRAS by surface plasmon resonance (SPR), KD and KD ratio to KRAS
Settings: ratio of KD for HRAS wild-type protein to KD for KRAS
Experimental: (§1) Surface plasmon resonance was used to analyze the binding affinity of compounds for KRAS, NRAS, and HRAS. The apparatus used was Biacore 8K, 8K+, or T200 (GE Healthcare), and the running buffer used was HBS (10 mM HEPES-NaOH, 150 mM NaCl, pH 7.4) containing 1 mM DTT, 10 mM MgCl2, 0.01% Tween 20, 10 µM GDP, and 4% DMSO.
(§2) Biotinylated Avi-tag fusion KRAS, NRAS, and HRAS proteins were expressed in E. coli BL21 (DE3) strains, and after cells were homogenized, they were purified using Streptavidin Mutein Matrix and Superdex 75. After purification, GDP-loaded KRAS, NRAS, and HRAS proteins were immobilized on the surface of Sensor Chip CAP (Cytiva) coated with Biotin CAPture Reagent in an immobilization amount of about 100 to 300 RU. Binding of each compound was evaluated by the Single Cycle Kinetics method, and a running buffer or a compound solution was added to the RAS protein non-immobilized surface and the immobilized surface to obtain a binding response. The flow rate was set to 100 µL/min, and in the compound-adding cycle, compound solutions having different concentrations were intermittently added for 75 seconds each, starting from a low concentration. […] In the blank cycle, a running buffer was intermittently added and not the compound solution. The Biotin CAPture Reagent and RAS proteins were immobilized for each cycle, and at the end of each cycle, the sensor chip was regenerated by the regeneration solution appended to the Biotin CAPture Kit (Cytiva). Measurement was carried out at 30°C.
(§3) The resulting sensorgram was subjected to curve fitting based on a 1:1 binding model on Biacore Insight Evaluation Software or T200 Evaluation Software, and thereby the dissociation constant KD of each compound with respect to KRAS, NRAS, and HRAS was determined. […] Blank indicates a compound from which the KD value with respect to NRAS or HRAS was not obtained.

HRAS wild-type protein, sequence (P01112 whole entry): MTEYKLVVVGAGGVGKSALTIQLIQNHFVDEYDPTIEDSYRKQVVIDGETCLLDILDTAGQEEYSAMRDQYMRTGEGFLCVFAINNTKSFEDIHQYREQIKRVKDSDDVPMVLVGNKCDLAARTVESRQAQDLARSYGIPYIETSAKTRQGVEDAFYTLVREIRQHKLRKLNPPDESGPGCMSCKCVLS

| Structure (SMILES) | HRAS /KRAS |
| --- | --- |
| CCO[C@@H]1C[C@H]2C(=O)NC3(CC(C)(C)C3)C(=O)N(C)[C@@H](C3CCCC3)C(=O)N(C)[C@H](C(=O)N3CCCCC3)CC(=O)N(C)[C@H]3CCCCc4ccc(cc4)C[C@@H](C(=O)N(C)CC(=O)N[C@@H](CCc4ccc(C(F)(F)F)c(OC)c4)C(=O)N2C1)N1CC/C=C\C[C@@H](C1=O)N(C)C(=O)CN(C)C(=O)[C@H]([C@@H](C)CC)NC3=O [PP3093] | A (a compound having 10 or more and less than 20 is denoted as A) |
| CCC[C@H]1C(=O)N[C@@H]([C@@H](C)CC)C(=O)N(C2CC2)CC(=O)N(C)[C@H]2C/C=C\CCN(C2=O)[C@@H](Cc2ccc(C)cc2)C(=O)N(C)CC(=O)N[C@@H](CCc2ccc(C(F)(F)F)c(C3CC3)c2)C(=O)N2C[C@H](OCC)C[C@H]2C(=O)NC2(CC(C)(C)C2)C(=O)N(C)[C@@H](C2CCCC2)C(=O)N(C)[C@H](C(=O)N(C)C)CC(=O)N1C [PP2881] | A (a compound having 10 or more and less than 20 is denoted as A) |

Target: GDP-bound NRAS wild-type protein (Homo sapiens, UniProt P01111)
Experiment: Binding to NRAS by surface plasmon resonance (SPR), KD and KD ratio to KRAS
Settings: ratio of KD for GDP-bound NRAS wild-type protein to KD for KRAS
Experimental: as §1, §2, §3

GDP-bound NRAS wild-type protein, sequence (P01111 whole entry): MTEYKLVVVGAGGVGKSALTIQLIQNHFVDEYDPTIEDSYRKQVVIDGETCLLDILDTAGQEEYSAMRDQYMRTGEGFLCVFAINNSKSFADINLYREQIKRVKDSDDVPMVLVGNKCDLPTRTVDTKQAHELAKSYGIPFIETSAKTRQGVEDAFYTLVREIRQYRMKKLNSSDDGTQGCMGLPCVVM

| Structure (SMILES) | NRAS /KRAS |
| --- | --- |
| CCO[C@@H]1C[C@H]2C(=O)NC3(CC(C)(C)C3)C(=O)N(C)[C@@H](C3CCCC3)C(=O)N(C)[C@H](C(=O)N3CCCCC3)CC(=O)N(C)[C@H]3CCCCc4ccc(cc4)C[C@@H](C(=O)N(C)CC(=O)N[C@@H](CCc4ccc(C(F)(F)F)c(OC)c4)C(=O)N2C1)N1CC/C=C\C[C@@H](C1=O)N(C)C(=O)CN(C)C(=O)[C@H]([C@@H](C)CC)NC3=O [PP3093] | A (a compound having 10 or more and less than 20 is denoted as A) |
| CCC[C@H]1C(=O)N[C@@H]([C@@H](C)CC)C(=O)N(C2CC2)CC(=O)N(C)[C@H]2C/C=C\CCN(C2=O)[C@@H](Cc2ccc(C)cc2)C(=O)N(C)CC(=O)N[C@@H](CCc2ccc(C(F)(F)F)c(C3CC3)c2)C(=O)N2C[C@H](OCC)C[C@H]2C(=O)NC2(CC(C)(C)C2)C(=O)N(C)[C@@H](C2CCCC2)C(=O)N(C)[C@H](C(=O)N(C)C)CC(=O)N1C [PP2881] | A (a compound having 10 or more and less than 20 is denoted as A) |

System: human lung cancer strain NCI-H441
Experiment: not given
Assay type: cell-based
Settings: not given
Experimental: A test compound was dispensed into a U-bottom 384-well plate as 40 nL serially diluted dimethyl sulfoxide solutions using a liquid handler Echo (LABCYTE). […] This cell suspension was dispensed in an amount of 40 µL per well into a plate containing the test compound, and cultured at 37°C in a 5% carbon dioxide gas incubator. Four days later, 20 µL of CellTiter-Glo (registered trademark) (Promega) was added to each well and […] was measured. […]

| Structure (SMILES) | IC50 [nM] |
| --- | --- |
| CCC[C@H]1C(=O)N[C@@H]([C@@H](C)CC)C(=O)N(C)CC(=O)N(C)[C@H]2C/C=C\CCN(C2=O)[C@@H](Cc2ccc(C)cc2)C(=O)N(C)CC(=O)N[C@@H](CCc2ccc(C(F)(F)F)c(Cl)c2)C(=O)N2C[C@H](C)C[C@H]2C(=O)NC2(CCC2)C(=O)N(C)[C@@H](C2CCCC2)C(=O)N(C)[C@H](C(=O)N(C)CC)CC(=O)N1C [PP1850] | 49.1 |
| CCCN1C(=O)[C@@H]2CCN2C(=O)[C@H](C)N(C)C(=O)[C@H]([C@@H](C)CC)NC(=O)[C@H](CC(C)C)N(C)C(=O)C[C@@H](C(=O)N2CCOCC2)N(C)C(=O)[C@H](C2CCCC2)N(C)C(=O)C2(CCCC2)NC(=O)[C@@H]2CCCN2C(=O)[C@H](CCc2ccc(C(F)(F)F)c(Cl)c2)NC(=O)CN(C)C(=O)[C@@H]1Cc1ccc(OC(F)(F)F)cc1 [PP0136] ([NMeL]I[NMeA][Aze][X51][Sar][hPhe(3-Cl-4-CF3)]P[Ac5c][NMeGly(cPent)][NMeD]-Morpholide; lactam N-11) | 19.6 |
| CCCN1C(=O)CN(C)C(=O)CN(C)C(=O)[C@H]([C@@H](C)CC)NC(=O)[C@H](CC(C)C)N(C)C(=O)C[C@@H](C(=O)N2CCOCC2)N(C)C(=O)[C@H](C2CCCC2)N(C)C(=O)C2(CCCC2)NC(=O)[C@@H]2C[C@H](OCC(F)F)CN2C(=O)[C@H](CCc2ccc(C(F)(F)F)c(Cl)c2)NC(=O)CN(C)C(=O)[C@@H]1Cc1ccc(C(F)(F)F)cc1 [PP0245] ([NMeL]I[Sar][Sar][NPrPhe(4-CF3)][Sar][hPhe(3-Cl-4-CF3)][cisHyp](Ethyl(2,2-F2))[Ac5c][NMeGly(cPent)][NMeD]-Morpholide; lactam N-11) | 22.9 |
| C=CCN1C(=O)[C@@H]2CCN2C(=O)[C@H](C)N(C)C(=O)[C@H]([C@@H](C)CC)NC(=O)[C@H](CC(C)C)N(C)C(=O)C[C@@H](C(=O)N2CCOCC2)N(C)C(=O)[C@H](C2CCCC2)N(C)C(=O)C2(CCCC2)NC(=O)[C@@H]2CCCN2C(=O)[C@H](CCc2ccc(C(F)(F)F)c(Cl)c2)NC(=O)CN(C)C(=O)[C@@H]1Cc1ccc(C)cc1 [PP0088] ([NMeL]I[NMeA][Aze][X50][Sar][hPhe(3-Cl-4-CF3)]P[Ac5c][NMeGly(cPent)][NMeD]-Morpholide; lactam N-11) | 4.1 |
| CC[C@H](C)[C@@H]1NC(=O)[C@H](CC(F)F)N(C)C(=O)C[C@@H](C(=O)N(C)C)N(C)C(=O)[C@H](C2CCCC2)N(C)C(=O)C2(CC(C)(C)C2)NC(=O)[C@@H]2C[C@H](C)CN2C(=O)[C@H](CCc2ccc(C(F)(F)F)c(OC)c2)NC(=O)CN(C)C(=O)[C@H](Cc2ccc(C)cc2)N2CC/C=C\C[C@@H](C2=O)N(C)C(=O)CN(C)C1=O [PP1875] | 7.7 |
| CCO[C@@H]1C[C@H]2C(=O)NC3(CCC3)C(=O)N(C)[C@@H](C(CC)CC)C(=O)N(C)[C@H](C)CC(=O)N(C)[C@@H](CC3CCCC3)C(=O)N[C@@H]([C@@H](C)CC)C(=O)N(C)CC(=O)N(C)[C@H]3C/C=C\CCN(C3=O)[C@@H](Cc3ccc(F)cc3)C(=O)N(C)CC(=O)N[C@@H](CCc3cc(F)c(C(F)(F)F)c(F)c3)C(=O)N2C1 [PP1523] | 320 |
| CCC[C@H]1C(=O)N[C@@H]([C@@H](C)CC)C(=O)N(C)CC(=O)N(C)[C@H]2C/C=C\CCN(C2=O)[C@@H](Cc2ccc(C)cc2)C(=O)N(C)CC(=O)N[C@@H](CCc2ccc(C(F)(F)F)c(Cl)c2)C(=O)N2C[C@@H](C)C[C@H]2C(=O)NC2(CCC2)C(=O)N(C)[C@@H](C2CCCC2)C(=O)N(C)[C@H](C(=O)N(C)CC)CC(=O)N1C [PP1848] | 22.5 |
| CCCN1C(=O)[C@@H]2CCN2C(=O)C2(CC2)NC(=O)[C@H]([C@@H](C)CC)NC(=O)[C@H](CC(C)C)N(C)C(=O)C[C@@H](C(=O)N2CCOCC2)N(C)C(=O)[C@H](C2CCCC2)N(C)C(=O)C2(CCCC2)NC(=O)[C@@H]2CCCN2C(=O)[C@H](CCc2ccc(C(F)(F)F)c(Cl)c2)NC(=O)CN(C)C(=O)[C@@H]1Cc1ccc(C(F)(F)F)cc1 [PP0276] ([NMeL]I[Ac3c][Aze][NPrPhe(4-CF3)][Sar][hPhe(3-Cl-4-CF3)]P[Ac5c][NMeGly(cPent)][NMeD]-Morpholide; lactam N-11) | 752 |
| CCCN1C(=O)[C@@H]2CCN2C(=O)[C@@H]2[C@@H](C)CN2C(=O)[C@H]([C@@H](C)CC)NC(=O)[C@H](CC(C)C)N(C)C(=O)C[C@@H](C(=O)N2CCOCC2)N(C)C(=O)[C@H](C2CCCC2)N(C)C(=O)C2(CCCC2)NC(=O)[C@@H]2CCCN2C(=O)[C@H](CCc2ccc(C(F)(F)F)c(Cl)c2)NC(=O)CN(C)C(=O)[C@@H]1Cc1ccc(C(F)(F)F)cc1 [PP0279] ([NMeL]I[Aze(3S-Me)][Aze][NPrPhe(4-CF3)][Sar][hPhe(3-Cl-4-CF3)]P[Ac5c][NMeGly(cPent)][NMeD]-Morpholide; lactam N-11) | 15 |
| CC[C@H](C)[C@@H]1NC(=O)[C@H](CC2CC2)N(C)C(=O)C[C@@H](C(=O)N(C)CC)N(C)C(=O)[C@H](C2CCCC2)N(C)C(=O)C2(CCC2)NC(=O)[C@@H]2C[C@@H](C)CN2C(=O)[C@H](CCc2ccc(C(F)(F)F)c(OC)c2)NC(=O)CN(C)C(=O)[C@H](Cc2ccc(C)cc2)N2CC/C=C\C[C@@H](C2=O)N(C)C(=O)CN(C)C1=O [PP1900] | 24.7 |
| CCCN1C(=O)[C@@H]2CCN2C(=O)CN(C)C(=O)[C@H]([C@@H](C)CC)NC(=O)[C@H](CC(C)C)N(C)C(=O)C[C@@H](C(=O)N(C)C)NC(=O)[C@H](C2CCCC2)N(C)C(=O)C2(CCCC2)NC(=O)[C@@H]2CCCN2C(=O)[C@H](CCc2ccc(C(F)(F)F)c(Cl)c2)NC(=O)CN(C)C(=O)[C@@H]1Cc1ccc(C(F)(F)F)cc1 [PP0385] ([NMeL]I[Sar][Aze][NPrPhe(4-CF3)][Sar][hPhe(3-Cl-4-CF3)]P[Ac5c][NMeGly(cPent)]D-NMe2; lactam N-11) | 15.2 |
| CC[C@H](C)[C@@H]1NC(=O)[C@H](CC)N(C)C(=O)C[C@@H](C(=O)N(C)CC)N(C)C(=O)[C@H](C2CCCC2)N(C)C(=O)C2(CC(C)(C)C2)NC(=O)[C@@H]2C[C@H](C)CN2C(=O)[C@H](CCc2cc(F)c(C(F)(F)F)c(F)c2)NC(=O)CN(C)C(=O)[C@H](Cc2ccc(C)cc2)N2CC/C=C\C[C@@H](C2=O)N(C)C(=O)CN(C)C1=O [PP1882] | 20.2 |
| CCCN(C)C(=O)[C@@H]1CC(=O)N(C)[C@@H](CCOC)C(=O)N[C@@H]([C@@H](C)CC)C(=O)N(C)CC(=O)N(C)[C@H]2C/C=C\CCN(C2=O)[C@@H](Cc2ccc(C(F)(F)F)cc2)C(=O)N(C)CC(=O)N[C@@H](CCc2cc(F)c(C(F)(F)F)c(F)c2)C(=O)N2C[C@H](OCC)C[C@H]2C(=O)NC2(CC(C)(C)C2)C(=O)N(C)[C@@H](C2CCCC2)C(=O)N1C [PP2033] | 11.8 |

From EP4603105A1, “PHARMACEUTICAL COMPOSITION CONTAINING CYCLIC COMPOUND HAVING SELECTIVE KRAS INHIBITORY EFFECT AGAINST HRAS AND NRAS” (CHUGAI SEIYAKU KABUSHIKI KAISHA, priority 2022, dated 2024)
